Measurements taken from patent US20260217677A1, “ORGANIC COMPOUNDS AS NLRP3 INHIBITORS” (KODIAK SCIENCES, INC., priority 2023, published 2026).

These compounds were tested on IL-1β release in U937 cells after NLRP3 activation (assay: IL-1β release inhibition in U937 cells (MSD V-Plex)). Conditions: Homo sapiens, U-937, read-out: IL-1β IC50, Table 3; PMA-differentiated U937 cells, 1 μg/mL LPS 3 h, compound 30 min, 10 mM nigericin 1 h.
Protocol: Differentiating media was prepared by adding 20 nM phorbol 12-myristate 13-acetate (PMA) (AdipoGen AG-CN2-0010-M005) to growth medium. A cell suspension was prepared with differentiating media at 500K cells/mL. […] Plates were placed in an incubator for 90 hours. […] Differentiating media was removed and priming media was added to each well. The plates were placed in the incubator for three (3) hours. 20 mM compound DMSO stock solutions were prepared and were further diluted to 0.4 mM; This solution was serially diluted 6 times in a 1:5 ratio. A solvent control was included.
After three (3) hours of priming, all the media was removed. Next, assay media with compounds was added in duplicate columns. The plate was placed in an incubator for 30 min. Media with a final concentration of 10 mM nigericin was then added for one (1) hour. The supernatant was collected and frozen immediately at −80° C. The plate was transferred to −20° C. the next day and for later determination of cytokine IL-1ß levels.
The release of IL-1ß into the cell media was determined with the MSD® Multi-Spot Assay System (V-Plex, IL-1ß kit, K151KPD). Following the manufacturer's protocol (Alternate Protocol 3, Dilute-In-Plate), the level of IL-1ß in the above collected supernatant plate was measured using electro-chemiluminescent signals. Using MSD DISCOVERY WORKBENCH® analysis software, the signals were converted to the concentration of IL-1ß in each well. The IC50 values of the compounds were calculated using fitted non-linear regression curve in Graph Pad Prism software. The detection range of IL-1ß using MSD kit was approximately 0.15 to 600 μg/mL (based on various lots of standards purchased from MSD).

SMILES	IC50 [nM]
Cc1cc(N[C@@H]2CCCN(CCC3CCC(O)CC3)C2)nnc1-c1ccc(C(F)(F)F)cc1O (single isomer, unassigned) [Example 72]	< 5
Cc1cc(N[C@@H]2CCCN(CCN3CCC(O)CC3)C2)nnc1-c1ccc(C(F)(F)F)cc1O [Compound 7, (R)-1-(2-(3-((6-(2-Hydroxy-4-(trifluoromethyl)phenyl)-5-methylpyridazin-3-yl)amino)piperidin-1-yl)ethyl)piperidin-4-ol]	5 to 50
Oc1cc(C(F)(F)F)ccc1-c1nnc(N[C@@H]2CCCN(C[C@H]3C[C@H](O)C3)C2)c2c1COC2 [Example 59, 2-(4-(((R)-1-(((1r,3R)-3-Hydroxycyclobutyl)methyl)piperidin-3-yl)amino)-5,7-dihydrofuro[3,4-d]pyridazin-1-yl)-5-(trifluoromethyl)phenol]	< 5
O=C(CN1CCC[C@@H](Nc2nnc(-c3ccc(C(F)(F)F)cc3O)c3c2COC3)C1)N1CC[C@H](O)C1 [Compound 26, 2-((R)-3-((4-(2-Hydroxy-4-(trifluoromethyl)phenyl)-5,7-dihydrofuro[3,4-d]pyridazin-1-yl)amino)piperidin-1-yl)-1-((S)-3-hydroxypyrrolidin-1-yl)ethan-1-one]	5 to 50
Cc1c(N[C@@H]2CCCN(CCOC(=O)N3CCC(O)CC3)C2)nnc(-c2ccc(C(F)(F)F)cc2O)c1C [Example 75, (R)-2-(3-((6-(2-Hydroxy-4-(trifluoromethyl)phenyl)-4,5-dimethylpyridazin-3-yl)amino)piperidin-1-yl)ethyl 4-hydroxypiperidine-1-carboxylate]	< 5
Cc1cc(N[C@@H]2CCCN(CC(=O)N3CC4(CCC(O)CC4)C3)C2)nnc1-c1ccc(C(F)(F)F)cc1O [Compound 17, (R)-2-(3-((6-(2-Hydroxy-4-(trifluoromethyl)phenyl)-5-methylpyridazin-3-yl)amino)piperidin-1-yl)-1-(7-hydroxy-2-azaspiro[3.5]nonan-2-yl)ethan-1-one]	< 5
Cc1cc(N[C@@H]2CCCN(CC(=O)N3CCC(O)CC3)C2)nnc1-c1ccc2sccc2c1O [Example 49, 2-[(3R)-3-{[6-(4-hydroxy-1-benzothiophen-5-yl)-5-methylpyridazin-3-yl]amino}piperidin-1-yl]-1-(4-hydroxypiperidin-1-yl)ethanone]	< 5
O=C(CN1CCC[C@@H](Nc2nnc(-c3ccc(C(F)(F)F)cc3O)c3c2COC3)C1)N1C[C@@H](O)[C@H](F)C1 [Example 29, 1-((3R,4R)-3-Fluoro-4-hydroxypyrrolidin-1-yl)-2-((R)-3-((4-(2-hydroxy-4-(trifluoromethyl)phenyl)-5,7-dihydrofuro[3,4-d]pyridazin-1-yl)amino)piperidin-1-yl)ethan-1-one]	5 to 50
O=C(CN1CCC[C@@H](Nc2nnc(-c3ccc(C(F)(F)F)cc3O)c3c2COC3)C1)N1CCC(O)CC1 [Compound 23, (R)-2-(3-((4-(2-Hydroxy-4-(trifluoromethyl)phenyl)-5,7-dihydrofuro[3,4-d]pyridazin-1-yl)amino)piperidin-1-yl)-1-(4-hydroxypiperidin-1-yl)ethan-1-one]	< 5
Cc1cc(N[C@@H]2CCCN(CCN3CCC(O)C3)C2)nnc1-c1ccc(C(F)(F)F)cc1O (stereo partly drawn) [Compound 2, 1-(2-((R)-3-((6-(2-Hydroxy-4-(trifluoromethyl)phenyl)-5-methylpyridazin-3-yl)amino)piperidin-1-yl)ethyl)pyrrolidin-3-ol]	> 500
Cc1cc(N[C@@H]2CCCN(CC(=O)NC3CC(O)C3)C2)nnc1-c1ccc(C(F)(F)F)cc1O (stereo partly drawn) [Compound 10, 2-((R)-3-((6-(2-Hydroxy-4-(trifluoromethyl)phenyl)-5-methylpyridazin-3-yl)amino)piperidin-1-yl)-N-((1r,3R)-3-hydroxycyclobutyl)acetamide]	5 to 50
Oc1cc(C(F)(F)F)ccc1-c1nnc(N[C@@H]2CCCN(CCN3CC[C@H](O)C3)C2)c2c1COC2 [Example 35, (S)-1-(2-((R)-3-((4-(2-Hydroxy-4-(trifluoromethyl)phenyl)-5,7-dihydrofuro[3,4-d]pyridazin-1-yl)amino)piperidin-1-yl)ethyl)pyrrolidin-3-ol]	5 to 50
Cc1cc(N[C@@H]2CCCN(CC(=O)N3CCC(C)(O)CC3)C2)nnc1-c1ccc(C(F)(F)F)cc1O [Example 55, (R)-2-(3-((6-(2-Hydroxy-4-(trifluoromethyl)phenyl)-5-methylpyridazin-3-yl)amino)piperidin-1-yl)-1-(4-hydroxy-4-methylpiperidin-1-yl)ethan-1-one]	< 5
O=C(CN1CCC[C@@H](Nc2nnc(-c3ccc(F)cc3O)c3c2CCC3)C1)N1CCC(O)CC1 [Compound 20, 2-[(3R)-3-{[4-(4-Fluoro-2-hydroxyphenyl)-5H,6H,7H-cyclopenta[d]pyridazin-1-yl]amino}piperidin-1-yl]-1-(4-hydroxypiperidin-1-yl) ethenone]	50 to 500
Cc1cc(N[C@@H]2CCCN(C3CCN(C4CC(O)C4)CC3)C2)nnc1-c1ccc(C(F)(F)F)cc1O (single isomer, unassigned) [Example 38A]	5 to 50
Cc1cc(N[C@@H]2CCCN(CC(=O)NC34CC(O)(C3)C4)C2)nnc1-c1ccc(C(F)(F)F)cc1O [Compound 13, (R)-2-(3-((6-(2-Hydroxy-4-(trifluoromethyl)phenyl)-5-methylpyridazin-3-yl)amino)piperidin-1-yl)-N-(3-hydroxybicyclo[1.1.1]pentan-1-yl)acetamide]	5 to 50

Same assay, conditions: Homo sapiens, U-937, read-out: IL-1β IC50, Table 4; PMA-differentiated U937 cells, 1 μg/mL LPS 3 h, compound 30 min, 10 mM nigericin 1 h

SMILES	IC50 [nM]
Cc1cc(N[C@@H]2CCCN(C3CCNCC3)C2)nnc1-c1ccc(C(F)(F)F)cc1O [Example 85, (R)-2-(6-([1,4′-Bipiperidin]-3-ylamino)-4-methylpyridazin-3-yl)-5-(trifluoromethyl)phenol]	5 to 50
Cc1cc(N[C@@H]2CCCN(CC(=O)NC3CNC3)C2)nnc1-c1ccc(C(F)(F)F)cc1O [Example 94, (R)—N-(Azetidin-3-yl)-2-(3-((6-(2-hydroxy-4-(trifluoromethyl)phenyl)-5-methylpyridazin-3-yl)amino)piperidin-1-yl)acetamide]	> 500
Cc1cc(N[C@@H]2CCCN(C(=O)CN)C2)nnc1-c1ccc(C(F)(F)F)cc1O [Example 92, (R)-2-Amino-1-(3-((6-(2-hydroxy-4-(trifluoromethyl)phenyl)-5-methylpyridazin-3-yl)amino)piperidin-1-yl)ethan-1-one]	5 to 50
Cc1cc(N[C@@H]2CCCN(C3CC(N)C3)C2)nnc1-c1ccc(C(F)(F)F)cc1O (stereo partly drawn) [Example 89, (R)-2-(6-((1-(3-Aminocyclobutyl)piperidin-3-yl)amino)-4-methylpyridazin-3-yl)-5-(trifluoromethyl)phenol]	5 to 50
Cc1cc(N[C@@H]2CCCN(C3CCN(C(=O)N4CCC(N)CC4)CC3)C2)nnc1-c1ccc(C(F)(F)F)cc1O [Example 87, (R)-(4-Aminopiperidin-1-yl) (3-((6-(2-hydroxy-4-(trifluoromethyl)phenyl)-5-methylpyridazin-3-yl)amino)-[1,4′-bipiperidin]-1′-yl)methanone]	50 to 500
Cc1cc(N[C@@H]2CCCN(CC(=O)N3C[C@H]4CNC[C@H]4C3)C2)nnc1-c1ccc(C(F)(F)F)cc1O [Example 112, 1-((3aR,6aS)-Hexahydropyrrolo[3,4-c]pyrrol-2 (1H)-yl)-2-((R)-3-((6-(2-hydroxy-4-(trifluoromethyl)phenyl)-5-methylpyridazin-3-yl)amino)piperidin-1-yl)ethan-1-one]	5 to 50
Cc1cc(N[C@@H]2CCCN(C[C@@H]3CCCN3)C2)nnc1-c1ccc(C(F)(F)F)cc1O [Example 106, 2-(4-Methyl-6-(((R)-1-(((S)-pyrrolidin-2-yl)methyl)piperidin-3-yl)amino)pyridazin-3-yl)-5-(trifluoromethyl)phenol]	5 to 50
Cc1cc(N[C@@H]2CCCN(CC(=O)NC3CCNCC3)C2)nnc1-c1ccc(C(F)(F)F)cc1O [Example 95, (R)-2-(3-((6-(2-Hydroxy-4-(trifluoromethyl)phenyl)-5-methylpyridazin-3-yl)amino)piperidin-1-yl)-N-(piperidin-4-yl)acetamide]	50 to 500
Cc1cc(N[C@@H]2CCCN(CCNCC3CCS(=O)(=O)CC3)C2)nnc1-c1ccc(C(F)(F)F)cc1O [Example 109, (R)-4-(((2-(3-((6-(2-Hydroxy-4-(trifluoromethyl)phenyl)-5-methylpyridazin-3-yl)amino)piperidin-1-yl)ethyl)amino)methyl)tetrahydro-2H-thiopyran 1,1-dioxide]	5 to 50
Cc1cc(N[C@@H]2CCCN(CC(=O)N3CCNCC3)C2)nnc1-c1ccc2sccc2c1O [Example 113, (R)-2-(3-((6-(4-hydroxybenzo[b]thiophen-5-yl)-5-methylpyridazin-3-yl)amino)piperidin-1-yl)-1-(piperazin-1-yl)ethan-1-one]	< 5
NC1CC2(CCN(C(=O)CN3CCC[C@@H](Nc4nnc(-c5ccc(C(F)(F)F)cc5O)c5c4COC5)C3)CC2)C1 [Example 101, (R)-1-(2-Amino-7-azaspiro[3.5]nonan-7-yl)-2-(3-((4-(2-hydroxy-4-(trifluoromethyl)phenyl)-5,7-dihydrofuro[3,4-d]pyridazin-1-yl)amino)piperidin-1-yl)ethan-1-one]	5 to 50

Same assay, conditions: read-out: IL-1β IC50; Table 3; PMA-differentiated U937 cells, 1 μg/mL LPS 3 h, compound 30 min, 10 mM nigericin 1 h

SMILES	IC50 [nM]
Cc1cc(N[C@@H]2CCCN(CC(=O)N(C)[C@H]3CC[C@H](O)CC3)C2)nnc1-c1ccc(C(F)(F)F)cc1O [Compound 18, 2-((R)-3-((6-(2-Hydroxy-4-(trifluoromethyl)phenyl)-5-methylpyridazin-3-yl)amino)piperidin-1-yl)-N-((1r,4R)-4-hydroxycyclohexyl)-N-methylacetamide]	5 to 50
Cc1cc(N[C@@H]2CCCN(C3CCC(O)CC3)C2)nnc1-c1ccc(C(F)(F)F)cc1O (single isomer, unassigned) [Example 54]	< 5
Cc1cc(N[C@@H]2CCCN(C3CCN(C4CCC(O)CC4)CC3)C2)nnc1-c1ccc(C(F)(F)F)cc1O (single isomer, unassigned) [Example 39B]	5 to 50
